According to ChEMBL document CHEMBL1201862, “PubChem BioAssay data set” (2004):
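Exposure lasted 48 hours, with cells grown in 96-well plates and compounds tested at five concentrations. GI50: concentration for 50% inhibition of growth.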 Activity calls are given as the source filed them. Cut-off read from the data, not from the text of the source: active = GI50 up to about 1.1 µM and inactive = higher.

How the values were obtained:
Assay in all cases: NCI anticancer screen, dose series, 48 h
[1] = tested on: HCT-15
[2] = tested on: MOLT-4
[3] = tested on: BT-549
[4] = tested on: EKVX
[5] = tested on: Malme-3M
[6] = tested on: OVCAR-3
[7] = tested on: SNB-19
[8] = tested on: TK-10

With `C=C1C(C)C2C(Cc3ccccc3)NC(=O)C23C(OC(C)=O)C=CC(C)(O)C(=O)C(C)C/C=C/C3C1O` (stereo not drawn) the GI50 [1] was 5550 nM and the GI50 [2] was 15100 nM (inactive).
With `C=C1C(=O)O[C@H]2/C=C(/C)C3=CC(=O)[C@@](C)(C[C@@H](OC(=O)/C(C)=C\C)C12)O3` (stereo partly drawn) the GI50 [3] was 1210 nM (inactive), the GI50 [4] was 1290 nM (inactive) and the GI50 [5] was 387 nM (active). The GI50 [6] was 769 nM (active), the GI50 [7] was 13200 nM (inactive) and the GI50 [8] was 649 nM (active).
